Test results as given in ChEMBL document CHEMBL5500393, “Discovery and Optimization of Novel SaFabI Inhibitors as Specific Therapeutic Agents for MRSA Infection” (J Med Chem, 2024).
Values after ≈ are worked out from the molar mass of the structure shown. Active and inactive are the calls of the source. The rule behind the calls is not given here.

Columns and labels:
[1] = biological target: T1, Enoyl-[acyl-carrier-protein] reductase [NADPH] FabI (Staphylococcus aureus) (UniProt Q6GI75); assay: Inhibition of N-terminal his 6 tagged Staphylococcus aureus Fabi (1 to […] residues) expressed in Escherichia coli BL21 at 1 uM incubated for 30 mins in presence of NADPH by fluorescence based microplate reader analysis relative to control
T1 sequence (whole entry): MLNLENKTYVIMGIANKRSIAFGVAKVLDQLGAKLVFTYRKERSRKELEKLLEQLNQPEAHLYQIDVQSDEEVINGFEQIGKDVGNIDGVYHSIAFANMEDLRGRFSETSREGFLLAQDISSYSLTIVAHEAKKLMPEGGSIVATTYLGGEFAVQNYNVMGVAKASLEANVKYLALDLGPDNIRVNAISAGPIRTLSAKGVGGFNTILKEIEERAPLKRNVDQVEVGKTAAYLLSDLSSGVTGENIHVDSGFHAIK

[2] = biological target: T2, Enoyl-[acyl-carrier-protein] reductase [NADPH] FabI (Staphylococcus aureus, UniProt Q6GI75); assay: Inhibition of N-terminal his 6 tagged Staphylococcus aureus Fabi (1 to […] residues) expressed in Escherichia coli BL21 incubated for 30 mins in presence of NADPH by fluorescence based microplate reader analysis
T2 sequence (Q6GI75 whole entry): T1 sequence (whole entry)

Staphylococcus aureus [3] = assay: Antimicrobial activity against […] Staphylococcus aureus ATCC33591 measured after 24 hrs by CLSI protocol based microdilution method; type: functional
Staphylococcus aureus [4] = assay: Antimicrobial activity against […] Staphylococcus aureus ATCC43300 measured after 24 hrs by CLSI protocol based microdilution method; type: functional
Staphylococcus aureus [5] = assay: Antimicrobial activity against […] Staphylococcus aureus USA300 measured after 24 hrs by CLSI protocol based microdilution method; type: functional
Staphylococcus aureus [6] = assay: Antimicrobial activity against […] Staphylococcus aureus NRS271 measured after 24 hrs by CLSI protocol based microdilution method; type: functional
Staphylococcus aureus [7] = assay: Antimicrobial activity against methicillin-susceptible Staphylococcus aureus ATCC29213 measured after 24 hrs by CLSI protocol based microdilution method; type: functional
Staphylococcus aureus [8] = assay: Antimicrobial activity against methicillin-susceptible Staphylococcus aureus ATCC25923 measured after 24 hrs by CLSI protocol based microdilution method; type: functional
[9] = biological target: T1, Enoyl-[acyl-carrier-protein] reductase [NADPH] FabI (Staphylococcus aureus); assay: Binding affinity to N-terminal his 6 tagged Staphylococcus aureus Fabi (1 to […] residues) expressed in Escherichia coli BL21 assessed as change in melting temperature at 80 uM incubated for 20 mins in presence of NADPH by differential scanning fluorescence assay
Staphylococcus aureus [10] = assay: In vivo antibacterial activity against methicilin-resistant Staphylococcus aureus ATCC33591 infected in BALB/c mouse skin infection model assessed as reduction in skin lesions at 10 mg/kg administered daily for 4 days (reference value: 48.3 mm2); type: functional; settings: time 4 day
Staphylococcus aureus [11] = assay: In vivo antibacterial activity against methicilin-resistant Staphylococcus aureus ATCC33591 infected in BALB/c mouse skin infection model assessed as log reduction in bacterial count at 10 mg/kg administered daily for 4 days; type: functional; settings: time 4 day
Staphylococcus aureus [12] = assay: In vivo antibacterial activity against methicilin-resistant Staphylococcus aureus ATCC33591 infected in BALB/c mouse skin infection model assessed as normal morphology at 10 mg/kg administered daily for 4 days by H and E staining based analysis; type: functional, organism-based; settings: time 4.0 day
Staphylococcus aureus [13] = assay: In vivo antibacterial activity against methicilin-resistant Staphylococcus aureus ATCC33591 infected in BALB/c mouse skin infection model assessed as normal skin structure at 10 mg/kg administered daily for 4 days by H and E staining based analysis; type: functional, organism-based; settings: time 4.0 day
Staphylococcus aureus [14] = assay: Antimicrobial activity against […] Staphylococcus aureus ATCC33591 assessed as frequency of spontaneous resistance at 4 times MIC measured after 48 hrs by; type: functional
Staphylococcus aureus [15] = assay: Antimicrobial activity against […] Staphylococcus aureus ATCC33591 assessed as frequency of spontaneous resistance at 8 times MIC measured after 48 hrs by; type: functional
Staphylococcus aureus [16] = assay: Antimicrobial activity against […] Staphylococcus aureus ATCC33591 assessed as frequency of spontaneous resistance at 16 times MIC measured after 48 hrs by; type: functional
Staphylococcus aureus [17] = assay: Antimicrobial activity against […] Staphylococcus aureus ATCC33591 assessed as reduction in RNA content measured after 4 hrs by microplate reader based analysis; type: functional
[18] = biological target: T1, Enoyl-[acyl-carrier-protein] reductase [NADPH] FabI (Staphylococcus aureus); assay: Inhibition of N-terminal his 6 tagged Staphylococcus aureus Fabi (1 to […] residues) expressed in Escherichia coli BL21 at 10 uM incubated for 30 mins in presence of NADPH by fluorescence based microplate reader analysis relative to control
[19] = Inhibition of N-terminal his 6 tagged Escherichia coli Fabi (1 to 789 residues) expressed in Escherichia coli BL21 incubated for 30 mins in presence of NADH by fluorescence based microplate reader analysis
[20] = Inhibition of N-terminal his 6 tagged Acinetobacter baumannii Fabi (1 to 804 residues) expressed in Escherichia coli BL21 incubated for 30 mins in presence of NADH by fluorescence based microplate reader analysis
Enterococcus faecium = assay: Antimicrobial activity against Enterococcus faecium ATCC19434 measured after 24 hrs by CLSI protocol based microdilution method; type: functional
Enterococcus faecalis = assay: Antimicrobial activity against Enterococcus faecalis ATCC29212 measured after 24 hrs by CLSI protocol based microdilution method; type: functional
Pseudomonas aeruginosa = assay: Antimicrobial activity against Pseudomonas aeruginosa PAO1 measured after 24 hrs by CLSI protocol based microdilution method; type: functional
Escherichia coli = assay: Antimicrobial activity against Escherichia coli ATCC25922 measured after 24 hrs by CLSI protocol based microdilution method; type: functional
Acinetobacter baumannii = assay: Antimicrobial activity against Acinetobacter baumannii ATCC19606 measured after 24 hrs by CLSI protocol based microdilution method; type: functional
Candida albicans = assay: Antimicrobial activity against Candida albicans SC5314 measured after 48 hrs by CLSI protocol based microdilution method; type: functional
[21] = Cytotoxicity against HEK293 cells assessed as survival rate at 400 uM measured after 48 hrs by CCK-8 method relative to control; type: toxicity, cell-based; settings: human, read-out: Survival
HepG2 [22] = assay: Cytotoxicity against human HepG2 cells assessed as survival rate at 400 uM measured after 48 hrs by CCK-8 method relative to control; type: functional; settings: read-out: Survival
[23] = Cytotoxicity against HEK293 cells assessed as survival rate at 800 uM measured after 48 hrs by CCK-8 method relative to control; type: toxicity, cell-based; settings: human, read-out: Survival
HepG2 [24] = assay: Cytotoxicity against human HepG2 cells assessed as survival rate at 800 uM measured after 48 hrs by CCK-8 method relative to control; type: functional; settings: read-out: Survival
[25] = Hemolytic activity in sheep erythrocytes assessed as hemolysis at 64 ug/ml incubated for 1 hr by microplate reader based analysis relative to control; type: toxicity, cell-based, Ovis aries, Erythrocyte; settings: at 64 µg/mL, read-out: Activity
[26] = Hemolytic activity in sheep erythrocytes assessed as hemolysis at 128 ug/ml incubated for 1 hr by microplate reader based analysis relative to control; type: toxicity, cell-based, Ovis aries, Erythrocyte; settings: at 128 µg/mL, read-out: Activity
[27] = Hemolytic activity in sheep erythrocytes assessed as hemolysis at 256 ug/ml incubated for 1 hr by microplate reader based analysis relative to control; type: toxicity, cell-based, Ovis aries, Erythrocyte; settings: at 256 µg/mL, read-out: Activity
[28] = Hemolytic activity in sheep erythrocytes assessed as hemolysis incubated for 1 hr by microplate reader based analysis; type: toxicity, cell-based, Ovis aries, Erythrocyte
Staphylococcus aureus [29] = assay: Antimicrobial activity against Staphylococcus aureus measured after 24 hrs by CLSI protocol based microdilution method; type: functional
[30] = Selectivity index, ratio of HC50 for sheep erythrocytes to MIC for Staphylococcus aureus; type: toxicity; settings: read-out: Selectivity Index
Staphylococcus aureus [31] = assay: In vivo antibacterial activity against methicilin-resistant Staphylococcus aureus ATCC33591 infected in BALB/c mouse skin infection model assessed as decrease in lesion size at 10 mg/kg administered daily for 4 days (reference value: 43.4 mm2); type: functional; settings: time 4 day
Staphylococcus aureus [32] = assay: In vivo antibacterial activity against methicilin-resistant Staphylococcus aureus ATCC33591 infected in BALB/c mouse skin infection model assessed as reduction in area of injury at 20 mg/kg administered daily for 4 days by H and E staining based analysis; type: functional, organism-based; settings: time 4.0 day
Staphylococcus aureus [33] = assay: In vivo antibacterial activity against methicilin-resistant Staphylococcus aureus ATCC33591 infected in BALB/c mouse skin infection model assessed as reduction in number of inflammatory cells at 20 mg/kg administered daily for 4 days by H and E staining based analysis; type: functional, organism-based; settings: time 4.0 day
Staphylococcus aureus [34] = assay: In vivo antibacterial activity against methicilin-resistant Staphylococcus aureus ATCC33591 infected in BALB/c mouse skin infection model assessed as restoration of cell morphology at 20 mg/kg administered daily for 4 days by H and E staining based analysis; type: functional, organism-based; settings: time 4.0 day

SMILES | inhibition [1] [%] | IC50 [2] [µM] | MIC (Staphylococcus aureus [3]) [mg/L] | MIC (Staphylococcus aureus [4]) [mg/L] | MIC (Staphylococcus aureus [5]) [mg/L] | MIC (Staphylococcus aureus [6]) [mg/L] | MIC (Staphylococcus aureus [7]) [mg/L] | MIC (Staphylococcus aureus [8]) [mg/L] | inhibition [18] [%] | IC50 [19] [µM] | IC50 [20] [µM] | MIC (Enterococcus faecium) [mg/L] | MIC (Enterococcus faecalis) [mg/L] | MIC (Pseudomonas aeruginosa) [mg/L] | MIC (Escherichia coli) [mg/L] | MIC (Acinetobacter baumannii) [mg/L] | MIC (Candida albicans) [mg/L] | viability at 48 h, 400 µM [21] [%] | viability at 400 µM (HepG2 [22]) [%] | viability at 48 h, 800 µM [23] [%] | also measured
Cc1c(Br)cccc1N1C[C@@H](c2nc3ccccc3n2C)CC1=O | > 85 | 0.094 | 0.25 (≈ 0.651 µM) | 0.5 (≈ 1.3 µM) | 0.5 (≈ 1.3 µM) | 1 (≈ 2.6 µM) | 0.5 (≈ 1.3 µM) | 0.5 (≈ 1.3 µM) | – | – | – | – | – | – | – | – | – | – | – | – | ΔTm [9]: 14.3 °C; Activity (Staphylococcus aureus [10]): 16.1 mm2; log(activity) (Staphylococcus aureus [11]): 6.8; Activity (Staphylococcus aureus [12]): Active; Activity (Staphylococcus aureus [13]): Active; Activity (Staphylococcus aureus [14]): 3.8 10^-10No_unit; Activity (Staphylococcus aureus [15]): <2.6 10^-10No_unit; Activity (Staphylococcus aureus [16]): <2.6 10^-10No_unit
CO[C@H]1/C=C/O[C@@]2(C)Oc3c(C)c(O)c4c(O)c(c(/C=N/N5CCN(C)CC5)c(O)c4c3C2=O)NC(=O)/C(C)=C\C=C\[C@H](C)[C@H](O)[C@@H](C)[C@@H](O)[C@@H](C)[C@H](OC(C)=O)[C@@H]1C [RIFAMPIN] | – | – | – | – | – | – | – | – | – | – | – | – | – | – | – | – | – | – | – | – | MIC (Staphylococcus aureus [17]): 0.016 mg/L (≈ 0.0194 µM)
Cn1c(C2CC(=O)N(c3cccc(Cl)c3Cl)C2)nc2ccccc21 (configuration not stated) | 73.7 | 0.495 | 4 (≈ 11.1 µM) | 2 (≈ 5.55 µM) | 2 (≈ 5.55 µM) | 4 (≈ 11.1 µM) | 2 (≈ 5.55 µM) | 2 (≈ 5.55 µM) | 98.8 | 0.0359 | 0.266 | > 32 | > 32 | > 32 | > 32 | > 32 | > 32 | > 70 | > 70 | > 75 | viability at 800 µM (HepG2 [24]): > 75%; hemolysis at 1 h, 64 ug/ml [25]: 2.4%; hemolysis at 1 h, 128 ug/ml [26]: 4.3%; hemolysis at 1 h, 256 ug/ml [27]: 7.5%; HC50 at 1 h [28]: > 256 µg/mL; MIC (Staphylococcus aureus [29]): 2 mg/L (≈ 5.55 µM); selectivity ratio [30]: > 64
CCn1c(C2CC(=O)N(c3cccc(Br)c3C)C2)nc2ccccc21 (configuration not stated) | 82.5 | 0.342 | 1 (≈ 2.51 µM) | 2 (≈ 5.02 µM) | 1 (≈ 2.51 µM) | 2 (≈ 5.02 µM) | 2 (≈ 5.02 µM) | 2 (≈ 5.02 µM) | 96.3 | 0.0359 | 0.266 | > 32 | > 32 | > 32 | > 32 | > 32 | > 32 | > 70 | > 70 | > 65 | viability at 800 µM (HepG2 [24]): > 65%; hemolysis at 1 h, 64 ug/ml [25]: 4.3%; hemolysis at 1 h, 128 ug/ml [26]: 7.5%; hemolysis at 1 h, 256 ug/ml [27]: 12.7%; HC50 at 1 h [28]: > 256 µg/mL; MIC (Staphylococcus aureus [29]): 1 mg/L (≈ 2.51 µM); selectivity ratio [30]: > 128
CC(=O)NC[C@H]1CN(c2ccc(N3CCOCC3)c(F)c2)C(=O)O1 [LINEZOLID] | – | – | – | – | 1 (≈ 2.96 µM) | > 32 | – | – | – | – | – | 2 (≈ 5.93 µM) | – | > 32 | > 32 | > 32 | > 32 | – | – | – | Activity (Staphylococcus aureus [31]): 25.7 mm2; Activity (Staphylococcus aureus [32]): inactive; Activity (Staphylococcus aureus [33]): inactive; Activity (Staphylococcus aureus [34]): inactive
